# Data reported in patent publication US8017775B2, “1-2-dihydroquinoline derivative having glucocorticoid receptor binding activity” (Santen Pharmaceutical Co., Ltd., priority 2005, dated 2011).
# Biological target: T1, Recombinant human GR (Homo sapiens, UniProt P04150)
# T1 construct: purchased Invitrogen P2816
# T1 sequence (P04150 1-777): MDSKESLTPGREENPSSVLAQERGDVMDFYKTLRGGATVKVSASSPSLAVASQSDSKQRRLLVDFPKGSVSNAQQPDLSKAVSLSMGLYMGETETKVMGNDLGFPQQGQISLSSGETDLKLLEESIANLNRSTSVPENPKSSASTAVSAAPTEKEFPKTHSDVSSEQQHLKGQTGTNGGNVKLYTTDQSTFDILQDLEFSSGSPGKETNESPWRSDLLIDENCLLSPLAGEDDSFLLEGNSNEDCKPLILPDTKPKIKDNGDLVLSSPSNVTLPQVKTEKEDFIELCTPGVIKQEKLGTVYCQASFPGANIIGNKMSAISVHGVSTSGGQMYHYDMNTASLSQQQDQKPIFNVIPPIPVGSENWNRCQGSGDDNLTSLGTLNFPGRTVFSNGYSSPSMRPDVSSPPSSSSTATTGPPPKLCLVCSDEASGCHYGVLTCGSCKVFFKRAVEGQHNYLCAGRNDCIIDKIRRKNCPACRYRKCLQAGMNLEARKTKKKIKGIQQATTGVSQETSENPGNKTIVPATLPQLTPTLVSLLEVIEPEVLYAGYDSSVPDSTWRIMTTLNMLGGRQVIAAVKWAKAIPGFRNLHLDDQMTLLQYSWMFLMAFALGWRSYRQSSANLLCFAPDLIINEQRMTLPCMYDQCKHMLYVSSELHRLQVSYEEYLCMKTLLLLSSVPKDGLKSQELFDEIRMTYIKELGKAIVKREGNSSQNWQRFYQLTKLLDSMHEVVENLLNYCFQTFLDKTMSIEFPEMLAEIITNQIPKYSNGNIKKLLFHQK
# Assay: GR competitor assay by fluorescence polarization (GR binding ratio)
# Conditions: positive control 2 mM dexamethasone, a GR binding ratio of 100% or more is indicated by 100%
# Experimental: 1. Evaluation Test for Binding Activity to Glucocorticoid Receptor (hereinafter referred to as “GR”)
# In order to evaluate a binding activity to GR, a receptor competitor assay was carried out by a fluorescence polarization method. In the assay, a GR competitor assay kit (manufactured by Invitrogen, cat No. P2816) was used, and a procedure was carried out according to the protocol attached to the kit. Hereinafter, the specific method will be described.
# GR screening buffer: A buffer containing 10 mM potassium phosphate (pH 7.4), 20 mM sodium molybdate (Na2MoO4), 0.1 mM ethylene diamine tetraacetic acid (EDTA), 5 mM dithiothreitol (DTT), 0.1 mM stabilizing peptide and 2% dimethylsulfoxide was prepared.
# 4×GS1 solution: Fluormone™ GS1, which is a fluorescent glucocorticoid ligand, was diluted with GR screening buffer, whereby a 4 nM solution was prepared.
# 4×GR solution: Recombinant human GR was diluted with GR screening buffer, whereby a 16 nM solution was prepared.
# After a test compound was dissolved in dimethylsulfoxide, the resulting solution was diluted with GR screening buffer, whereby a 20 μM test compound solution was prepared.
# 1) The test compound solution was added in an amount of 25 μL or 10 μL into each well of a 96-well or 384-well plate, and then, 4×GS1 solution and 4×GR solution were added in an amount of 12.5 μL or 5 μL into each well, respectively.
# 2) The plate was incubated in a dark place at room temperature for 2 to 4 hours.
# 3) By using a multimode plate reader, Analyst™ HT (manufactured by LJL Biosystems), fluorescence polarization of each well was measured. As the blank, a well containing GR screening buffer in place of the test compound and 4×GS1 solution was used.
# 4) The same procedure as that in the above 1) to 3) was carried out except that GR screening buffer was used in place of the test compound solution, and the obtained result was taken as the negative control.
# 5) The same procedure as that in the above 1) to 3) was carried out except that 2 mM dexamethasone was used in place of the test compound solution, and the obtained result was taken as the positive control.
# A GR binding ratio (%) was calculated from the following equation.
# GR binding ratio (%)=100×[1−(fluorescence polarization of test compound solution−fluorescence polarization of positive control solution)/(fluorescence polarization of negative control solution−fluorescence polarization of positive control solution)]
row,Structure (SMILES),GR Binding ratio (%)
1,"C/C=C/c1ccccc1OCc1c(-c2ccc(F)cc2OC)ccc2c1C(C)=CC(C)(C)N2 [Compound 3-62, 6-(4-Fluoro-2-methoxyphenyl)-5-[2-(1-propenyl)phenoxymethyl]-2,2,4-trimethyl-1,2-dihydroquinoline]",≥ 100%
2,"COc1ccc(F)cc1OCc1c(-c2ccc(F)cc2OC)ccc2c1C(C)=CC(C)(C)N2 [Compound 3-67, 5-(5-Fluoro-2-methoxyphenoxymethyl)-6-(4-fluoro-2-methoxyphenyl)-2,2,4-trimethyl-1,2-dihydroquinoline]",≥ 100%
3,"COc1cc(F)ccc1-c1ccc2c(c1COc1ccccc1CCO)C(C)=CC(C)(C)N2 [Compound 3-68, 6-(4-Fluoro-2-methoxyphenyl)-5-[2(2-hydroxyethyl)phenoxymethyl)-2,2,4-trimethyl-1,2-dihydroquinoline]",≥ 100%
4,"COc1cc(F)ccc1-c1ccc2c(c1COc1ccccc1C(C)C)C(C)=CC(C)(C)N2 [Compound 3-69, 5-(2-Isopropylphenoxymethyl)-6-(4-fluoro-2-methoxyphenyl)-2,2,4-trimethyl-1,2-dihydroquinoline]",≥ 100%
5,"COc1cc(F)ccc1-c1ccc2c(c1COc1cc([N+](=O)[O-])ccc1C)C(C)=CC(C)(C)N2 [Compound 3-72, 6-(4-Fluoro-2-methoxyphenyl)-5-(2-methyl-5-nitrophenoxymethyl)-2,2,4-trimethyl-1,2-dihydroquinoline]",≥ 100%
6,"C=CCc1ccccc1OCc1c(-c2ccc(F)cc2OC)ccc2c1C(C)=CC(C)(C)N2 [Compound 3-74, 6-(4-Fluoro-2-methoxyphenyl)-5-(2-allylphenoxymethyl)-2,2,4-trimethyl-1,2-dihydroquinoline]",≥ 100%
7,"COc1cc(F)ccc1-c1ccc2c(c1COc1cc(Cl)ccc1Cl)C(C)=CC(C)(C)N2 [Compound 3-85, 5-(2,5-Diclorophenoxymethyl)-6-(4-fluoro-2-methoxyphenyl)-2,2,4-trimethyl-1,2-dihydroquinoline]",95%
8,"COc1cc(F)ccc1-c1ccc2c(c1COc1cc([N+](=O)[O-])ccc1C#N)C(C)=CC(C)(C)N2 [Compound 3-91, 5-(2-Cyano-5-nitrophenoxymethyl)-6-(4-fluoro-2-methoxyphenyl)-2,2,4-trimethyl-1,2-dihydraquinoline]",≥ 100%
9,"COc1cc(F)ccc1-c1ccc2c(c1COc1cc(C=O)ccc1C)C(C)=CC(C)(C)N2 [Compound 3-94, 6-(4-Fluoro-2-methoxyphenyl)-5-(5-formyl-2-methylphenoxymethyl)-2,2,4-trimethyl-1,2-dihydroquinoline]",≥ 100%
10,"COc1ccc(Cl)cc1-c1ccc2c(c1COc1ccccc1CCO)C(C)=CC(C)(C)N2 [Compound 3-98, 6-(5-Chloro-2-methoxyphenyl)-5-[2-(2-Hydroxyethyl)phenoxymethyl]-2,2,4-trimethyl-1,2-dihydroquinoline]",≥ 100%
11,"COc1ccc(F)cc1-c1ccc2c(c1COc1ccccc1CCO)C(C)=CC(C)(C)N2 [Compound 3-99, 6-(5-Fluoro-2-methoxyphenyl)-5-[2-(2-hydroxyethyl)phenoxymethyl]-2,2,4-trimethyl-1,2-dihydroquinoline]",≥ 100%

# The remaining lines, values ahead:
row,GR Binding ratio (%),Structure (SMILES)
1,≥ 100%,"COc1cc(O)ccc1-c1ccc2c(c1COc1cc(F)ccc1C)C(C)=CC(C)(C)N2 [Compound 5-3, 5-(5-Fluoro-2-methylphenoxymethyl)-6-(4-hydroxy-2-methoxyphenyl)-2,2,4-trimethyl-1,2-dihydroquinoline]"
2,95%,"COc1ccc(O)cc1-c1ccc2c(c1COc1cc(F)ccc1C)C(C)=CC(C)(C)N2 [Compound 5-4, 5-(5-Fluoro-2-methylphenoxymethyl)-6-(5-hydroxy-2-methoxyphenyl)-2,2,4-trimethyl-1,2-dihydroquinoline]"
3,≥ 100%,"COc1ccccc1NCc1c(-c2ccc(F)cc2OC)ccc2c1C(C)=CC(C)(C)N2 [Compound 6-20, 6-(4-Fluoro-2-methoxyphenyl)-5-(2-methoxyphenylaminomethyl)-2,2,4-trimethyl-1,2-dihydroquinoline]"
4,≥ 100%,"CCOc1ccccc1NCc1c(-c2ccc(F)cc2OC)ccc2c1C(C)=CC(C)(C)N2 [Compound 6-24, 5-(2-Ethoxyphenylaminomethyl)-6-(4-fluoro-2-methoxyphenyl)-2,2,4-trimethyl-1,2-dihydroquinoline]"
5,≥ 100%,"COc1ccccc1NCc1c(-c2cc(F)c(F)cc2OC)ccc2c1C(C)=CC(C)(C)N2 [Compound 6-27, 6-(4,5-Difluoro-2-methoxyphenyl)-5-(2-methoxyphenylaminomethyl)-2,2,4-trimethyl-1,2-dihydroquinoline]"
6,98%,"COc1cc(F)ccc1-c1ccc2c(c1CNc1cccc(C)c1)C(C)=CC(C)(C)N2 [Compound 6-36, 6-(4-Fluoro-2-methoxyphenyl)-5-(3-methylphenylaminomethyl)-2,2,4-trimethyl-1,2-dihydroquinoline]"
7,≥ 100%,"COc1cc(F)ccc1-c1ccc2c(c1CNc1ccccc1C)C(C)=CC(C)(C)N2 [Compound 6-37, 6-(4-Fluoro-2-methoxyphenyl)-5-(2-methylphenylaminomethyl)-2,2,4-trimethyl-1,2-dihydroquinoline]"
8,99%,"CCc1cccc(NCc2c(-c3ccc(F)cc3OC)ccc3c2C(C)=CC(C)(C)N3)c1 [Compound 6-40, 5-(3-Ethylphenylaminomethyl)-6-(4-fluoro-2-methoxyphenyl)-2,2,4-trimethyl-1,2-dihydroquinoline]"
9,≥ 100%,"COc1ccc(C)cc1NCc1c(-c2ccc(F)cc2OC)ccc2c1C(C)=CC(C)(C)N2 [Compound 6-43, 6-(4-Fluoro-2-methoxyphenyl)-5-(2-methoxy-5-methylphenylaminomethyl)-2,2,4-trimethyl-1,2-dihydroquinoline]"
10,96%,"CCc1ccccc1NCc1c(-c2ccc(F)cc2OC)ccc2c1C(C)=CC(C)(C)N2 [Compound 6-45, 5-(2-Ethylphenylaminomethyl)-6-(4-fluoro-2-methoxyphenyl)-2,2,4-trimethyl-1,2-dihydroquinoline]"
11,≥ 100%,"COc1cc(F)ccc1-c1ccc2c(c1CNc1ccccc1C(C)C)C(C)=CC(C)(C)N2 [Compound 6-47, 6-(4-Fluoro-2-methoxyphenyl)-5-(2-isopropylphenylaminomethyl)-2,2,4-trimethyl-1,2-dihydroquinoline]"
12,95%,"COc1cc(F)ccc1-c1ccc2c(c1CNc1cc(C)ccc1C)C(C)=CC(C)(C)N2 [Compound 6-53, 5-(2,5-Dimethylphenylaminomethyl)-6-(4-fluoro-2-methoxyphenyl)-2,2,4-trimethyl-1,2-dihydroquinoline]"
13,≥ 100%,"COc1cc(F)ccc1-c1ccc2c(c1CNc1cc(F)ccc1C)C(C)=CC(C)(C)N2 [Compound 6-57, 6-(4-Fluoro-2-methoxyphenyl)-5-(5-fluoro-2-methylphenylaminomethyl)-2,2,4-trimethyl-1,2-dihydroquinoline]"
14,96%,"COc1cc(F)c(F)cc1-c1ccc2c(c1CNc1ccccc1C)C(C)=CC(C)(C)N2 [Compound 6-59, 6-(4,5-Difluoro-2-methoxyphenyl)-5-(2-methylphenylaminomethyl)-2,2,4-trimethyl-1,2-dihydroquinoline]"
